We go through 4 compounds from article PMC6547740, “Potent and specific MTH1 inhibitors targeting gastric cancer” (Cell Death & Disease, 2019).

Series [1] relates to MGC-803 cells. In words: Colony formation assay, MGC-803. It counts as cell-based, human. To be noted: MGC-803, 7 days treatment, compared with DMSO or MI-929. The procedure: (§1) The day before treatment, cells were seeded into six-well plates at a concentration of 1 × 10^3 cells per well, and then the media were replaced with fresh media containing serial concentrations of candidate compounds. After 7 days of treatment, the cells were fixed with 75% ethanol, stained with 0.1% crystal violet solution and captured by the microscopy (Leica). After that, the crystal violet crystals were dissolved by adding methanol. The absorbance at 595 nm was measured by a BioTek micro plate reader. In the end, the data were analyzed using the GraphPad Prism 5 software.

The test system of series [2] is HGC-27 cells. In words: Colony formation assay, HGC-27. It counts as cell-based, human. The conditions noted are these: HGC-27, 7 days treatment, compared with DMSO or MI-929. Here is the method:
as §1

In series [3] the target is T1, MTH1 (Homo sapiens, UniProt P36639). In words: Cellular thermal shift assay (CETSA), MTH1. To be noted: MGC-803 cells, 50 µM compound, heated 10 min from 43 to 61 °C, western blot. Format: binding. Also on record: endogenous in cells; host or cells: MGC-803 (human gastric cancer cell line). Here is the method: Cellular thermal shift assay (CETSA), also known as the target engagement assay was one-way to detect the intracellular interaction ability of compounds with its specific target. Firstly, cells were seeded into T75 culture flasks and cultured overnight. Then, the cells were treated with cell media containing 1‰ DMSO as blank control and candidate compounds for 3–5 h. Next, the cells were collected by centrifugation and resuspended by PBS, then the cells were aliquoted into 7 PCR tubes and heated using PCR instrument for 10 min from 43 to 61 °C. After that, cells were lysed using liquid nitrogen and three repeated cycles of freeze-thawing. Then, samples were centrifuged at 12,000 × g for 20 min at 4 °C. Supernatants were denatured at 100 °C for 10 min and kept at −20 °C until Western Blot analysis.
(In general: A western blot detects proteins with antibodies after separation by electrophoresis.)

Series [4] has as its target T1, MTH1. In words: MTH1 recombinant protein activity / inhibitor screening (malachite green). Format: biochemical. Also on record: His-tag; made in house; host or cells: E. coli BL21(DE3). To be noted: 5 nM recombinant MTH1, dGTP substrate, absorbance 630 nm; read-out: IC50 (MTH1 inhibition). Here is the method:
On the basis of the ability of MTH1 in converting dGTP to dGMP and pyrophosphate, and the latter can then be hydrolyzed to […] by inorganic pyrophosphatase, the MTH1 activity was designed to measure the product of […], after its reaction with malachite green and ammonium molybdate(Fig. 2l), the green associated complex was measured at 630 nm by PerkinElmer Envision microplate reader.
Firstly, the assay buffer (100 mM Tris-acetate at pH 8.0, 40 mM NaCl, 10 mM Mg-acetate, 0.005% Tween 20 and 1 mM DTT) was added into a 96-well plate. Then, 5 nM recombinant human MTH1, […] dGTP and 0.2U/ml […] were added in sequence. After 60 min reaction, the mixture of 0.45 mg/mL malachite green and 4.2% ammonium molybdate in proportion of 3:1 were added. Then, the plates were incubated and shaken at room temperature for another 60 min. The absorbance was measured at 630 nm using the PerkinElmer Envision micro plate reader.

The subject of another series is Het-1A cells. In words: MTT cell viability, Het-1A. Format: cell-based. The conditions noted are these: Homo sapiens, normal esophageal epithelial cell line, 72 h. Here is the method: (§2) The cell viability was determined by 3-(4,5-dimethylthiazol-2-yl)-2,5-diphenyltetrazolium bromide (MTT) assay, according to the manufacturer’s instructions. 1 day before treatment, cells were seeded into 96-well plates at a concentration of 2–5 × 10^3 cells per well, followed by treatment with fresh medium containing serial dilutions of candidate compounds for 48 or 72 h, 20 μL of MTT solution (5 mg/mL in PBS) was then added to each well. After treatment, the plates were incubated at 37 °C for another 4 h. Subsequently, the MTT solution was removed and 150 μL of DMSO was added to each well for 10 min, and then the plates were shaken to dissolve the dark blue crystal (formazan), the absorbance was detected at 570 nm using a BioTek microplate reader. The data were analyzed using SPSS 20 software.

In another series the test system is SMMC-7721 cells. Kind of series: MTT cell viability, SMMC-7721. It counts as cell-based. The conditions noted are these: Homo sapiens, liver cancer cell line, 72 h. Here is the method: as §2
Series [5] concerns MGC-803 cells. In words: MTT cell viability, MGC-803. It counts as cell-based. To be noted: Homo sapiens, gastric cancer cell line, 72 h. Here is the method: as §2
In another series the test system is L02 cells. Kind of series: MTT cell viability, L02. It counts as cell-based. The conditions noted are these: Homo sapiens, normal liver cell line, 72 h. The procedure: as §2
In another series the test system is B16-F10 cells. Kind of series: MTT cell viability, B16-F10. To be noted: Mus musculus, 72 h. It counts as cell-based. Here is the method:
as §2

A further series relates to MKN45 cells. Kind of series: MTT cell viability, MKN45. It counts as cell-based. To be noted: Homo sapiens, MKN-45, gastric cancer cell line, 72 h. The procedure:
as §2

For a further series, the system named is KYSE-450 cells. In words: MTT cell viability, KYSE-450. Format: cell-based. To be noted: Homo sapiens, esophageal cancer cell line, 72 h. The procedure:
as §2

In a further series the test system is MCF-7 cells. In words: MTT cell viability, MCF-7. It counts as cell-based. To be noted: Homo sapiens, MCF7, breast cancer cell line, 72 h. The procedure:
as §2

Another series concerns pc9 cells. In words: MTT cell viability, pc9. To be noted: Homo sapiens, PC-9, 72 h. Format: cell-based. Here is the method: as §2
The test system of another series is TE-1 cells. In words: MTT cell viability, TE-1. Format: cell-based. To be noted: Homo sapiens, 72 h. The procedure: as §2
The test system of the next series is ZIP177 cells. In words: MTT cell viability, ZIP177. It counts as cell-based. To be noted: Homo sapiens, liver cancer cell line, 72 h. The procedure:
as §2

For a further series, the system named is EC109 cells. In words: MTT cell viability, EC109. Format: cell-based. To be noted: Homo sapiens, ECa-109, esophageal cancer cell line, 72 h. The procedure: as §2
For the next series, the system named is HepG2 cells. Kind of series: MTT cell viability, HepG2. It counts as cell-based. To be noted: Homo sapiens, liver cancer cell line, 72 h. Here is the method: as §2
The next series concerns H1975 cells. Kind of series: MTT cell viability, H1975. It counts as cell-based. To be noted: Homo sapiens, NCI-H1975, 72 h. The procedure: as §2
The subject of series [6] is HGC-27 cells. In words: MTT cell viability, HGC-27. To be noted: Homo sapiens, gastric cancer cell line, 72 h. Format: cell-based. The procedure: as §2
Another series relates to HL-7702 cells. In words: MTT cell viability, HL-7702. Format: cell-based. To be noted: Homo sapiens, L02, normal liver cell line, 72 h. Here is the method: as §2
The test system of a further series is EC9706 cells. In words: MTT cell viability, EC9706. The conditions noted are these: Homo sapiens, esophageal cancer cell line, 72 h. It counts as cell-based. The procedure: as §2
The test system of the next series is SGC-7901 cells. In words: MTT cell viability, SGC-7901. It counts as cell-based. To be noted: Homo sapiens, gastric cancer cell line, 72 h. Here is the method: as §2
For another series, the system named is GES-1 cells. In words: MTT cell viability, GES-1. It counts as cell-based. The conditions noted are these: Homo sapiens, GES1, normal gastric epithelial cell line, 72 h. The procedure: as §2

With `C[C@H](Oc1cc(-c2cnn(C3CCNCC3)c2)cnc1N)c1c(Cl)ccc(F)c1Cl` [(S)-crizotinib], the colony formation result with MGC-803 cells [1] is “smaller and fewer colonies”; in the series on HGC-27 cells [2], “smaller and fewer colonies”.

Take `Cc1ccc(Nc2nc(SCc3cn(CC(=O)NC(=O)Nc4ccccn4)nn3)nc(-c3ccc(Br)cc3)c2C#N)cc1` [MI-401, 2-(4-((4-(4-bromophenyl)-5-cyano-6-(p-tolylamino)pyrimidin-2-yl)thiomethyl)-1H-1,2,3-triazol-1-yl)-N-(pyridin-2-ylcarbamoyl)acetamide]: the melting point – broadly, the temperature of the solid-liquid transition – was in the range of 155 to 156 °C. For the same compound, the “temperature of MTH1 degradation” value on MTH1 [3] came to 49 °C. For the same compound, the IC50 (in general, the concentration at which inhibition is half-maximal) on MTH1 [4] was 0.4613 ± 0.00267 µM.

In the case of `COc1ccccc1NC(=O)NC(=O)CSC(=S)N1CCCC1` [MI-929], the IC50 in the series with Het-1A cells, in the series with SMMC-7721 cells, in the series on MGC-803 cells [5], in the series on L02 cells, in the series with B16-F10 cells and in the series on MKN45 cells was above 50 µM throughout. Moreover, the 50% inhibitory concentration (IC50) with KYSE-450 cells, in the series with MCF-7 cells, in the series on pc9 cells, in the series with TE-1 cells, in the series on ZIP177 cells and in the series on EC109 cells was above 50 µM each time. Besides, the IC50 at MTH1 [4], in the series with HepG2 cells, in the series with H1975 cells, with HGC-27 cells [6], in the series on HL-7702 cells and with EC9706 cells was above 50 µM in each case. Further, the IC50 in the series with SGC-7901 cells and in the series with GES-1 cells was above 50 µM in each case. The “temperature of MTH1 degradation” value on MTH1 [3] was found to be 49 °C.

Turning to `Nc1nc(NC2CC2)cc(-c2cccc(Cl)c2Cl)n1` [TH588], the colony formation result was “smaller and fewer colonies” with MGC-803 cells [1]; “smaller and fewer colonies” in the series on HGC-27 cells [2].
